How the values were obtained:
MLKL [1] = target: T1, MLKL (Homo sapiens, UniProt Q8NB16); assay: MLKL degradation assay in HepG2 cell line (western blot); format: cell-based; parameters: endogenous in cells; host or cells: HepG2 or HaCaT; settings: cell line not given; for Degradation assay (Degradation %) 1 μM: compound 1 μM; for Degradation assay (Degradation %) 10 μM: compound 10 μM
T1 sequence (Q8NB16 1-471): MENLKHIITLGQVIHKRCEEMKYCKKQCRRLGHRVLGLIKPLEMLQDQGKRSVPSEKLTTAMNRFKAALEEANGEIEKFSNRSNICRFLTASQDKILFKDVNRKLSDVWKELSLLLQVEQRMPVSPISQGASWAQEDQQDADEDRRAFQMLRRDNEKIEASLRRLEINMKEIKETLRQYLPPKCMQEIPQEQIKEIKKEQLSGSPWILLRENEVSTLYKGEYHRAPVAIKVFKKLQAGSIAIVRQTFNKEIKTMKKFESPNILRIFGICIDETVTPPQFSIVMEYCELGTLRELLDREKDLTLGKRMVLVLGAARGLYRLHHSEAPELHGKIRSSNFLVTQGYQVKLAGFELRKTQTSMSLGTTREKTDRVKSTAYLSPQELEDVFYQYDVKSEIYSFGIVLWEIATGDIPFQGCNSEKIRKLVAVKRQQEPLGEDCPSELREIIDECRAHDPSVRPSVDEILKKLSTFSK
Procedure: MLKL degradation ability was evaluated in the following method.
1 mL of Human liver cancer cell line (HepG2 cell line) or human skin cell line (HaCaT cell line) was equally distributed into each well at 2.0×10^5 cells/mL in a 12-well cell culture plate. On the next day, the medium was replaced with a medium made so that the final concentration of test compound was 1 or 10 μM (1 mL/well), and incubated in 5% CO2, at 37° C. for 20-24 hours (Thermo scientific, Forma steri-cycle).
For protein preparation after incubation, cells were washed with 1×TBST, and 60 μL of RIPA lysis buffer containing Halt™ Protease and Phosphatase Inhibitor Cocktail was dispensed into each well. After scraping the cells with a scraper, the cells were recovered, and the pallet was homogenized and reacted on ice for 30 minutes. After the cells were centrifuged at 13,000 rpm, 10 minutes, 4° C., the supernatant was transferred to a new E-tube. For protein quantification, after dispensing sample and BCA (0-4 mg/ml) in a 96 well plate, 100 μL of BCA was dispensed and reacted in a 37° C. incubator for 30 minutes. After measuring the absorbance (SpectraMax, M5e, 562 nm), the amount of the sample was adjusted with the same concentration of protein and 4× Laemmli sample buffer, DW, and reacted at 100° C. for 5 minutes.
After assembling the MP TGX Precast Gel in the Mini-PROTEAN Tetra Cell, the same protein (10-15 μg) was added in an 8-10 μL volume per well, 1×Tris-Glycine Buffer was added, and loading was performed. After loading was completed, transfer was performed using Pierce G2 Fast Blotter and Pierce 1-Step Transfer Buffer. After completion of the transfer, 10 ml of SuperBlock™ Blocking Buffer was dispensed and reacted at room temperature for 10 minutes. 5% BSA containing the primary antibody was dispensed and reacted over night at 4° C. The next day, washing was performed three times with 1×TBST at room temperature for 10 minutes. 5% BSA containing the secondary antibody was dispensed and reacted at room temperature for 1 hour. Washing was performed three times with 1×TBST at room temperature for 10 minutes. The amount of protein expression was measured using chemiluminescence (LuminoGraph, ATTO).

MLKL [2] = target: T1, MLKL; assay: Measurement of binding affinity with MLKL receptor (competitive binding assay, Kd); parameters: made in house; host or cells: HEK 293 cell line (T7 phage in E. coli BL21-derived host is also described)
Method in brief: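 qPCR of MLKL eluted from liganded beads served as the read-out, from which Kd was derived. The protein was made in HEK 293 cells with a DNA tag, and test compounds competed with the bead-bound ligand at 0.9% final DMSO.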

FADD−/− Jurkat cells = assay: Necroptosis inhibition assay, TNF-α-induced necroptosis (CellTiter-Glo 2.0); format: cell-based, human; settings: TNF-α 15 ng/mL; for Necroptosis inhibition assay (Rescue %) 1 μM: compound 1 μM; for Necroptosis inhibition assay (Rescue %) 10 μM: compound 10 μM
Method in brief: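 Cells at 5.0×10^5 cells/mL were pretreated with compound (final 0.1, 1 and 10 μM) for 30 minutes at room temperature, then given TNF-α at 15 ng/mL final. After 20 to 24 hours at 37° C, 5% CO2, viability was read as ATP luminescence to calculate cytotoxicity and necroptosis inhibition rate.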

SMILES | Degradation assay (Degradation %) 1 μM (MLKL [1]) [%] | Degradation assay (Degradation %) 10 μM (MLKL [1]) [%] | Kd (MLKL [2]) [nM] | Necroptosis inhibition assay (Rescue %) 1 μM (FADD−/− Jurkat cells) [%] | Necroptosis inhibition assay (Rescue %) 10 μM (FADD−/− Jurkat cells) [%] | Necroptosis inhibition assay (Rescue %) 1 μM (FADD−/− Jurkat cells; FADD−/− Jurkat cells) [%] | Necroptosis inhibition assay (Rescue %) 10 μM (FADD−/− Jurkat cells; FADD−/− Jurkat cells) [%]
Nc1ncc(-c2ccc(N3CCN(CCOCCOCCNC(=O)CNc4cccc5c4C(=O)N(C4CCC(=O)NC4=O)C5=O)CC3)nc2)nc1C(=O)OC(C(=O)Nc1ccc(F)cc1)c1ccccc1 (stereo not drawn) [TDH-259, 2-((4-fluorophenyl)amino)-2-oxo-1-phenylethyl 3-amino-6-(6-(4-(2-(2-(2-(2-((2-(2,6-dioxopiperidin-3-yl)-1,3-dioxoisoindolin-4-yl)amino)acetamido)ethoxy)ethoxy)ethyl)piperazin-1-yl)pyridin-3-yl)pyrazine-2-carboxylate] | 18.61 | 30.36 | 50 |  |  |  | 
Nc1ncc(-c2cnn(C3CCN(CC4CCN(C(=O)CNc5cccc6c5C(=O)N(C5CCC(=O)NC5=O)C6=O)CC4)CC3)c2)nc1C(=O)N[C@@H](C(=O)Nc1ccc(F)cc1)c1ccccc1 (stereo partly drawn) [TDH-206, 3-amino-6-(1-(1-((1-((2-(2,6-dioxopiperidin-3-yl)-1,3-dioxoisoindolin-4-yl)glycyl)piperidin-4-yl)methyl)piperidin-4-yl)-1H-pyrazol-4-yl)-N-((R)-2-((4-fluorophenyl)amino)-2-oxo-1-phenylethyl)pyrazine-2-carboxamide] | 21.78 | 14.94 | 240 |  |  |  | 
Nc1ncc(-c2cnn(C3CCN(C(=O)CCCCCC#Cc4cccc5c4CN(C4CCC(=O)NC4=O)C5=O)CC3)c2)nc1C(=O)O[C@@H](C(=O)Nc1ccc(F)cc1)c1ccccc1 (stereo partly drawn) [TDH-423, (R)-2-((4-fluorophenyl)amino)-2-oxo-1-phenylethyl 3-amino-6-(1-(1-(8-(2-(2,6-dioxopiperidin-3-yl)-1-oxoisoindolin-4-yl)oct-7-ynoyl)piperidin-4-yl)-1H-pyrazol-4-yl)pyrazine-2-carboxylate] | 61.54 | 39.01 | 9.8 |  |  |  | 
Nc1ncc(-c2cnn(C3CCN(CCOCCOCCNc4cccc5c4C(=O)N(C4CCC(=O)NC4=O)C5=O)CC3)c2)nc1C(=O)N[C@@H](C(=O)Nc1ccc(F)cc1)c1ccccc1 (stereo partly drawn) [TDH-215, 3-amino-6-(1-(1-(2-(2-(2-((2-(2,6-dioxopiperidin-3-yl)-1,3-dioxoisoindolin-4-yl)amino)ethoxy)ethoxy)ethyl)piperidin-4-yl)-1H-pyrazol-4-yl)-N-((R)-2-((4-fluorophenyl)amino)-2-oxo-1-phenylethyl)pyrazine-2-carboxamide] |  |  | 91 | 15.33 | 21.83 |  | 
Nc1ncc(-c2cnn(C3CCN(CCCCCCCCCCNC(=O)C4CN(c5cccc6c5C(=O)N(C5CCC(=O)NC5=O)C6=O)C4)CC3)c2)nc1C(=O)O[C@@H](C(=O)Nc1ccc(F)cc1)c1ccccc1 (stereo partly drawn) [TDH-158, (R)-2-((4-fluorophenyl)amino)-2-oxo-1-phenylethyl 3-amino-6-(1-(1-(10-(1-(2-(2,6-dioxopiperidin-3-yl)-1,3-dioxoisoindolin-4-yl)azetidine-3-carboxamido)decyl)piperidin-4-yl)-1H-pyrazol-4-yl)pyrazine-2-carboxylate] | 49.22 | 39.81 | 35 |  |  |  | 
Nc1ncc(-c2cnn(C3CCN(CCCN4CCN(C(=O)CNc5ccc6c(c5)C(=O)N(C5CCC(=O)NC5=O)C6=O)CC4)CC3)c2)nc1C(=O)N[C@@H](C(=O)Nc1ccc(F)cc1)c1ccccc1 (stereo partly drawn) [TDH-493, 3-amino-6-(1-(1-(3-(4-((2-(2,6-dioxopiperidin-3-yl)-1,3-dioxoisoindolin-5-yl)glycyl)piperazin-1-yl)propyl)piperidin-4-yl)-1H-pyrazol-4-yl)-N-((R)-2-((4-fluorophenyl)amino)-2-oxo-1-phenylethyl)pyrazine-2-carboxamide] |  |  | 91 |  |  | 1.49 | −3.98
Cl.Nc1ncc(-c2cnn(C3CCNCC3)c2)cc1C(=O)O[C@@H](C(=O)Nc1ccc(F)cc1)c1ccccc1 [TDH-112, (R)-2-((4-fluorophenyl)amino)-2-oxo-1-phenylethyl 2-amino-5-(1-(piperidin-4-yl)-1H-pyrazol-4-yl)nicotinate hydrochloride] |  |  | 2 | 20.24 |  |  | 
CC(C)(C)OC(=O)N1CCC(n2cc(-c3cnc(N)c(C(=O)N[C@@H](C(=O)Nc4ccc(F)cc4)c4ccccc4)n3)cn2)CC1 [TDH-098, tert-butyl (R)-4-(4-(5-amino-6-((2-((4-fluorophenyl)amino)-2-oxo-1-phenylethyl)carbamoyl)pyrazin-2-yl)-1H-pyrazol-1-yl)piperidine-1-carboxylate] |  |  | 200 | 3.54 |  |  | 
Nc1ncc(-c2cnn(C3CCN(C(=O)COCCOCCNC(=O)C4CN(c5cccc6c5C(=O)N(C5CCC(=O)NC5=O)C6=O)C4)CC3)c2)nc1C(=O)O[C@@H](C(=O)Nc1ccc(F)cc1)c1ccccc1 (stereo partly drawn) [TDH-192, (R)-2-((4-fluorophenyl)amino)-2-oxo-1-phenylethyl 3-amino-6-(1-(1-(2-(2-(2-(1-(2-(2,6-dioxopiperidin-3-yl)-1,3-dioxoisoindolin-4-yl)azetidine-3-carboxamido)ethoxy)ethoxy)acetyl)piperidin-4-yl)-1H-pyrazol-4-yl)pyrazine-2-carboxylate] |  |  | 6.1 | 50.37 | 45.32 |  | 
Cl.Nc1ncc(-c2cnn(C3CCNCC3)c2)nc1C(=O)N[C@@H](C(=O)Nc1ccc(F)cc1)c1ccccc1 [TDH-099, (R)-3-amino-N-(2-((4-fluorophenyl)amino)-2-oxo-1-phenylethyl)-6-(1-(piperidin-4-yl)-1H-pyrazol-4-yl)pyrazine-2-carboxamide hydrochloride] |  |  | 11 | 18.18 |  |  | 
Nc1ncc(-c2cnn(C3CCN(CC4CCN(C(=O)C5CCN(c6ccc7c(c6)C(=O)N(C6CCC(=O)NC6=O)C7=O)CC5)CC4)CC3)c2)nc1C(=O)N[C@@H](C(=O)Nc1ccc(F)cc1)c1ccccc1 (stereo partly drawn) [TDH-210, 3-amino-6-(1-(1-((1-(1-(2-(2,6-dioxopiperidin-3-yl)-1,3-dioxoisoindolin-5-yl)piperidine-4-carbonyl)piperidin-4-yl)methyl)piperidin-4-yl)-1H-pyrazol-4-yl)-N-((R)-2-((4-fluorophenyl)amino)-2-oxo-1-phenylethyl)pyrazine-2-carboxamide] |  |  | 300 | 7.5 | 10.08 |  | 
Nc1ncc(-c2cnn(C3CCN(CCOCCOCCNC(=O)C4CN(c5ccc6c(c5)C(=O)N(C5CCC(=O)NC5=O)C6=O)C4)CC3)c2)nc1C(=O)O[C@@H](C(=O)Nc1ccc(F)cc1)c1ccccc1 (stereo partly drawn) [TDH-116, (R)-2-((4-fluorophenyl)amino)-2-oxo-1-phenylethyl 3-amino-6-(1-(1-(2-(2-(2-(1-(2-(2,6-dioxopiperidin-3-yl)-1,3-dioxoisoindolin-5-yl)azetidine-3-carboxamido)ethoxy)ethoxy)ethyl)piperidin-4-yl)-1H-pyrazol-4-yl)pyrazine-2-carboxylate] |  |  | 2 | 16.8 | 42.8 |  | 

— patent US20240252488A1 (KOREA RESEARCH INSTITUTE OF CHEMICAL TECHNOLOGY, priority 2020, published 2024)
